Legend:
[1] = molecular target: T1, PDE2A (Homo sapiens, UniProt O00408); test: Inhibition of recombinant PDE2A (expressed in baculovirus/SF21-cells), [3H]-cAMP SPA; format: biochemical
T1 construct: made in house; host or cells: SF21 insect cells (baculovirus)
Description: Inhibition of Recombinant PDE2A (Expressed in Baculovirus/SF21-Cells)
PDE2A (NM002599) was cloned and the gene was inserted in the baculovirus and the enzyme-protein expressed in SF21-cells. The enzyme was isolated from these cells by harvesting the cells by an centrifugation at 200 g to collect the cells. The cells were resuspended in 50 mM Tris-HCl/5 mM MgCl2 buffer (pH=7.4) (Sigma, Deisenhofen, Germany; Merck, Darmstadt, Germany) and lysed by a sonication of the cells (three times for 15 seconds, Labsonic U, Fa. Braun, Degersheim, Switzerland, level “high”). The membrane fraction of PDE2A was obtained by a centrifugation at 48 000 g for 1 h, resuspended in buffer and stored at −70° C.
PDE2A activity was determined in a one step procedure in microtiterplates. The reaction mixture of 100 μl contained 50 mM Tris-HCl/5 mM MgCl2 buffer (pH=7.4) (Sigma, Deisenhofen, Germany; Merck, Darmstadt, Germany), 0.5 μM [3H]-cAMP (Amersham, Buckinghamshire, UK), 1000 nM cGMP and the enzyme. Non-specific enzyme activity was tested in the absence of cGMP. The reaction was initiated by addition of the substrate solution and was carried out at 37° C. for 30 minutes. Enzymatic activity then was stopped by addition of 25 μl SPA-beads (Amersham-Pharmacia). One hour later the mixture was measured in a liquid scintillation counter for microtiterplates (Microbeta Trilux). For pipetting of the incubation mixture the robot Biomek (Fa. Beckman) was routinely used.
For determination of IC50 values the Hill-plot, 2-parameter-model, was used.

[2] = molecular target: T2, PDE10A (Homo sapiens, UniProt Q9Y233); test: Inhibition of recombinant PDE10A (baculovirus/SF21 system), [3H]-cAMP SPA; format: biochemical; conditions: recombinant PDE10A1, cytosolic; 0.1 μM [3H]-cAMP, 37° C., 30 minutes; read-out: PDE10A IC50
T2 construct: made in house; host or cells: SF21 insect cells (baculovirus)
T2 sequence (Q9Y233 1-779 isoform Q9Y233-1): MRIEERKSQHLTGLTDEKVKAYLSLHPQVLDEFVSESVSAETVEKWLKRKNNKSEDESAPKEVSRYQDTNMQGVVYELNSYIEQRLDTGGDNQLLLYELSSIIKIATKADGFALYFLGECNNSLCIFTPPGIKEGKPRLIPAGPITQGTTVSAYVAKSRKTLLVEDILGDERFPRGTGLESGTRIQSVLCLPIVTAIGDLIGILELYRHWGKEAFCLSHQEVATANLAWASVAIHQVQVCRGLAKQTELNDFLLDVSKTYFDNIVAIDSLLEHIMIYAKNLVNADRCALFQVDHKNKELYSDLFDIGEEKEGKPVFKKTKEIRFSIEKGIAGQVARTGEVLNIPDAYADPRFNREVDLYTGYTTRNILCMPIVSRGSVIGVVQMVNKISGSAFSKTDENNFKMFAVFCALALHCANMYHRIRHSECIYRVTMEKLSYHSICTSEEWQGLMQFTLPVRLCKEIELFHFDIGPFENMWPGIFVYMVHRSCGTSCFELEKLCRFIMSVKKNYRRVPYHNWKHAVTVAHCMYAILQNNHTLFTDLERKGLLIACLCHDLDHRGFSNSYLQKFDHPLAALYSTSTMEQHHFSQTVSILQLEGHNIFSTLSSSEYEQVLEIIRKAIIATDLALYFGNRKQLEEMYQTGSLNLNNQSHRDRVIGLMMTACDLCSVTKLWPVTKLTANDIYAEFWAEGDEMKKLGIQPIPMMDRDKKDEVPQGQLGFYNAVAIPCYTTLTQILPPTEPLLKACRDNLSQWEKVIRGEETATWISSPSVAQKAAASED
Description: Inhibition of Recombinant PDE10A (Baculovirus/SF21 System)
The gene was than inserted into a baculovirus vector, ligated with the baculovirus DNA. The enzyme-protein was expressed in SF21-cells. The enzyme was isolated from these cells by harvesting the cells by an centrifugation at 500 g to collect the cells.
The cells were resuspended in 50 mM Tris-HCl/1 mM EDTA/250 mM Sucrose buffer, pH=7.4 (Sigma, Deisenhofen, Germany; Merck, Darmstadt, Germany) and lysed by sonification of the cells (three times for 15 seconds, Labsonic U, Fa. Braun, Degersheim, Switzerland, level “high”). The cytosolic PDE10A was obtained by a centrifugation at 48,000 g for 1 h in the supernatant and stored at −70° C.
PDE activity was determined in a one step procedure in microtiter plates. The reaction mixture of 100 μl contained 50 mM Tris-HCl/5 mM MgCl2 buffer (pH=7.4, Sigma, Deisenhofen, Germany; Merck, Darmstadt, Germany) 0.1 μM [3H]-cAMP (Amersham, Buckinghamshire, UK) and the enzyme. Non-specific enzyme activity was determined without the enzyme. The reaction was initiated by addition of the substrate solution and was carried out at 37° C. for 30 minutes. Enzymatic activity then was stopped by addition of 25 μl Ysi-SPA-beads (Amersham-Pharmacia). One hour later the mixture was measured in a liquid scintillation counter for microtiter plates (Microbeta Trilux). The Biomek 2000 (Beckman) was used routinely for pipetting of the incubation mixture. […] For determination of IC50 values the Hill-plot, 2-parameter-model, was used.

T1 sequence (O00408 whole entry): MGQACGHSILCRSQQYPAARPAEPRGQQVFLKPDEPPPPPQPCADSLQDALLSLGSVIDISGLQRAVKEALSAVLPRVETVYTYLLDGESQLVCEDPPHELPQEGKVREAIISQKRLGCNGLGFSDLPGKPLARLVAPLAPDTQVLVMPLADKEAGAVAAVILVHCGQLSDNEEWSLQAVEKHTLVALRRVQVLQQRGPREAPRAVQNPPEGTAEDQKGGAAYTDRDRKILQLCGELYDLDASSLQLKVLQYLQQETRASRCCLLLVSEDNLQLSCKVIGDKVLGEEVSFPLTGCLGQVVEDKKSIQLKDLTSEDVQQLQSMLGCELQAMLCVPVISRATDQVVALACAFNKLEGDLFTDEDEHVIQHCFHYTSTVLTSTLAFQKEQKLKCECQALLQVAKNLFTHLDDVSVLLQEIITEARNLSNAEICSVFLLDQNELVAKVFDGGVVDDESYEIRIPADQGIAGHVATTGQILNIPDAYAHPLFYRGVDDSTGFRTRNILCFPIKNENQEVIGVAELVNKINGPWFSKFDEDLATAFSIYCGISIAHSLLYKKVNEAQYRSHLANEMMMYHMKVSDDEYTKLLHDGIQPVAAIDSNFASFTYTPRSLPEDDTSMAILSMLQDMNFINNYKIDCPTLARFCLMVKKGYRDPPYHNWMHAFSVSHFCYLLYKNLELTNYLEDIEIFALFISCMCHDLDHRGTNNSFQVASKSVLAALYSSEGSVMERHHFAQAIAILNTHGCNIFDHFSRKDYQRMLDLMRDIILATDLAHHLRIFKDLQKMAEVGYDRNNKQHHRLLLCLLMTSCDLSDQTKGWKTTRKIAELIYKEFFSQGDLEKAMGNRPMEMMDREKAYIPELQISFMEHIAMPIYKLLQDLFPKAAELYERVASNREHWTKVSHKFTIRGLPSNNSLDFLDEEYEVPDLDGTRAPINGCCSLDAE

Row | Compound | IC50 [1] [nM] | IC50 [2] [nM]
1 | COc1cc(F)c2nnc3c(C)nc(-c4cc(Cl)ccc4OC)n3c2c1 [Example 68, 1-(5-chloro-2-methoxyphenyl)-6-fluoro-8-methoxy-3-methylimidazo[5,1-c][1,2,4]benzotriazine] | 109 | 64.2
2 | COc1cc(F)c2nnc3c(C)nc(-c4ccc(F)cc4Cl)n3c2c1 [Example 70, 1-(2-chloro-4-fluorophenyl)-6-fluoro-8-methoxy-3-methylimidazo[5,1-c][1,2,4]benzotriazine] | 22.8 | 12.5
3 | COc1cc(F)cc2c1nnc1c(C)nc(-c3ccc(C)cc3Cl)n12 [Example 112, 1-(2-chloro-4-methylphenyl)-8-fluoro-6-methoxy-3-methylimidazo[5,1-c][1,2,4]benzotriazine] | 636 | 1.88
4 | COc1cc(F)c2nnc3c(C)nc(-c4cc(C(F)(F)F)ccc4Cl)n3c2c1 [Example 82, 1-[2-chloro-5-(trifluoromethyl)phenyl]-6-fluoro-8-methoxy-3-methylimidazo[5,1-c][1,2,4]benzotriazine] | 60.7 | 199
5 | COc1cc(OC)c2nnc3c(C)nc(-c4c(C)n[nH]c4C)n3c2c1 [Example 51, 1-(3,5-dimethyl-1H-pyrazol-4-yl)-6,8-dimethoxy-3-methylimidazo[5,1-c][1,2,4]benzotriazine] | 210 | 0.7
6 | COc1cc(F)cc2c1nnc1c(C)nc(-c3sccc3C)n12 [Example 119, 8-fluoro-6-methoxy-3-methyl-1-(3-methylthiophen-2-yl)imidazo[5,1-c][1,2,4]benzotriazine] | 269 | 1.64
7 | Cc1cn(-c2ccc3nnc4c(C)nc(C5CCCCC5)n4c3c2)c(C2CCCCC2)n1 [Example 179, 1-Cyclohexyl-8-(2-cyclohexyl-4-methyl-imidazol-1-yl)-3-methyl-imidazo[5,1-c][1,2,4]benzotriazine] | 242 | 322
8 | COc1cccc(-c2nc(C)c3nnc4c(OC)cc(F)cc4n23)c1 [Example 99, 8-fluoro-6-methoxy-1-(3-methoxyphenyl)-3-methylimidazo[5,1-c][1,2,4]benzotriazine] | 20000 | 9.11
9 | COc1cc(N2CCOCC2)cc2c1nnc1c(C)nc(-c3ccncc3C)n12 [Example 63, 6-methoxy-3-methyl-1-(3-methylpyridin-4-yl)-8-morpholin-4-ylimidazo[5,1-c][1,2,4]benzotriazine] | 437 | 3.99
10 | COc1cc(F)cc2c1nnc1c(C)nc(-c3cccnc3)n12 [Example 109, 8-fluoro-6-methoxy-3-methyl-1-pyridin-3-ylimidazo[5,1-c][1,2,4]benzotriazine] | > 5000 | 102
11 | COc1cc(F)cc2c1nnc1c(C)nc(-c3cnccc3C)n12 [Example 123, 8-fluoro-6-methoxy-3-methyl-1-(4-methylpyridin-3-yl)imidazo[5,1-c][1,2,4]benzotriazine] | 2380 | 25.4
12 | COc1cc(F)cc2c1nnc1c(C)nc(-c3cc(C(N)=O)ccc3F)n12 [Example 128, 4-fluoro-3-(8-fluoro-6-methoxy-3-methylimidazo[5,1-c][1,2,4]benzotriazin-1-yl)benzamide] | 654 | 6.31
13 | COc1cc(F)cc2c1nnc1c(C)nc(-c3c(C)nn(C)c3C)n12 [Example 116, 8-fluoro-6-methoxy-3-methyl-1-(1,3,5-trimethyl-1H-pyrazol-4-yl)imidazo[5,1-c][1,2,4]benzotriazine] | 1500 | 13.1
14 | COc1ccc(Cl)c(-c2nc(C)c3nnc4c(OC)cc(F)cc4n23)c1 [Example 126, 1-(2-chloro-5-methoxyphenyl)-8-fluoro-6-methoxy-3-methylimidazo[5,1-c][1,2,4]benzotriazine] | 108 | 2.45
15 | COc1cc(C(F)(F)F)cc2c1nnc1c(C)nc(-c3ccoc3)n12 [Example 143, 1-(Furan-3-yl)-6-methoxy-3-methyl-8-(trifluoromethyl)benzo[e]imidazo[5,1-c][1,2,4]triazine] | > 1000 | 57
16 | COc1cc(F)cc2c1nnc1c(C)nc(-c3cc(Cl)ccc3C)n12 [Example 104, 1-(5-chloro-2-methylphenyl)-8-fluoro-6-methoxy-3-methylimidazo[5,1-c][1,2,4]benzotriazine] | 171 | 5.37
17 | COc1cc(F)cc2c1nnc1c(C)nc(-c3cc(C(F)(F)F)ccc3Cl)n12 [Example 101, 1-[2-chloro-5-(trifluoromethyl)phenyl]-8-fluoro-6-methoxy-3-methylimidazo[5,1-c][1,2,4]benzotriazine] | 258 | 43
18 | COc1cc(OC)c2nnc3c(C)nc(-c4ccncc4C)n3c2c1 [Example 47, 6,8-dimethoxy-3-methyl-1-(3-methylpyridin-4-yl)-imidazo[5,1-c][1,2,4]benzotriazine] | 589 | 2.06
19 | COc1cc(F)c2nnc3c(C)nc(-c4cc(C)ccc4F)n3c2c1 [Example 75, 6-fluoro-1-(2-fluoro-5-methylphenyl)-8-methoxy-3-methylimidazo[5,1-c][1,2,4]benzotriazine] | 13.9 | 15
20 | COc1cc(OCc2ccccc2)cc2c1nnc1c(C)nc(-c3cccnc3C)n12 [Example 154, 8-(benzyloxy)-6-methoxy-3-methyl-1-(2-methylpyridin-3-yl)imidazo[5,1-c][1,2,4]benzotriazine] | 73.9 | 0.67
21 | COc1cc(N2CCOCC2)cc2c1nnc1c(C)nc(-c3cccnc3C)n12 [Example 64, 6-methoxy-3-methyl-1-(2-methylpyridin-3-yl)-8-morpholin-4-ylimidazo[5,1-c][1,2,4]benzotriazine] | 70.4 | 1.92
22 | Cc1nc(-c2ccccc2Cl)n2c1nnc1ccc(N3CCCCC3)cc12 [Example 183, 1-(2-Chloro-phenyl)-3-methyl-8-piperidin-1-yl-imidazo[5,1-c][1,2,4]benzotriazine] | 7.79 | 12.1
23 | COc1cc(F)cc2c1nnc1c(C)nc(-c3ccc(C)cc3F)n12 [Example 114, 8-fluoro-1-(2-fluoro-4-methylphenyl)-6-methoxy-3-methylimidazo[5,1-c][1,2,4]benzotriazine] | 1060 | 17.1
24 | COc1cc(F)c2nnc3c(C)nc(-c4cc(F)ccc4Cl)n3c2c1 [Example 80, 1-(2-chloro-5-fluorophenyl)-6-fluoro-8-methoxy-3-methylimidazo[5,1-c][1,2,4]benzotriazine] | 9.43 | 7.09
25 | COc1cc(F)c2nnc3c(C)nc(-c4c(C)noc4C)n3c2c1 [Example 89, 1-(3,5-dimethylisoxazol-4-yl)-6-fluoro-8-methoxy-3-methylimidazo[5,1-c][1,2,4]benzotriazine] | 819 | 623
26 | COc1cc(F)c2nnc3c(C)nc(-c4cccnc4)n3c2c1 [Example 90, 6-fluoro-8-methoxy-3-methyl-1-pyridin-3-ylimidazo[5,1-c][1,2,4]benzotriazine] | 585 | 386
27 | COc1cc(F)c2nnc3c(C)nc(-c4ccc(C)cc4Cl)n3c2c1 [Example 71, 1-(2-chloro-4-methylphenyl)-6-fluoro-8-methoxy-3-methylimidazo[5,1-c][1,2,4]benzotriazine] | 5.53 | 11.4
